Read-outs that look alike come from different tables or passages of the source. Residues, ends and D or L forms follow the SMILES beside them.
How the values were obtained:
human red blood cells = test: Hemolytic activity; assay type: cell-based
Experimental: Hemolytic activity was studied by incubating the fusion constructs with human red blood cells at concentrations of 0.01, 0.1, 1, 10 and 50 μM for 2 hours. Saline and 0.1% Triton served as controls.
Hemolytic activity of the compounds was studied by incubating EP-301 and EP-302 with human red blood cells at concentrations of 0.01, 0.1, 1, 10 and 50 μM for 2 hours.

[1] = test system: MDA-MB-435S breast cancer cells; assay type: cell-based, human; details: 4 h
Experimental: Twelve different fusion constructs were analyzed for anti-cancer activity in vitro against MDA-MB-435S breast cancer cells and for hemolytic activity in vitro to human red blood cells. Fusion constructs of the following sequence were tested:
(§1) The peptide conjugates were freshly dissolved in saline and added into cancer cell seeded multi-well plates at increasing concentrations of 0, 0.001, 0.01, 0.1, 1, 2, 5, 10 and 100 μM. Incubations were conducted for 4 h at 37° C. Cell viability was determined using formazan conversion assays (MTT assays). Controls were treated with USP saline or 0.1% TritonX-100™ as reference for 0 and 100% cell death, respectively. Cytotoxicity was evaluated as an IC50 value.

[2] = test system: MDA-MB-435S breast cancer cells; assay type: cell-based, human; details: 6 h
Experimental: as §1, with “EP-301 and EP-302 were analyzed for anti-cancer activity in vitro in a time course experiment against MDA-MB-435S breast cancer cells. EP-301 and EP-302” for “The peptide conjugates”, “0.25, 0.5, 1, 2, 4, 6 h or 24” for “4”, “value derived for EP-301 and EP-302 at each time point.” for “value.”

[3] = In vivo tolerability, repeat dose, nude mice; design: species or system mouse; details: 5 consecutive days; for Survival [%] Day 1 / Survival [%] Day 2* / Survival [%] Day 3 / Survival [%] Day 4 / Survival [%] Day 5: BalbC/nude mice
Experimental: Body weight, blood chemistry and blood cell counts were measured. […] Blood parameters for CBC and serum chemistry were normal in treated mice of both groups.

PC-3 (Prostate) = assay type: cell-based, human
Experimental: as §1, with “EP-302 was” for “The peptide conjugates were”, “6 h or 24” for “4”, “value derived for EP-302 in each cell line.” for “value.”

MDA-MB-435S (Breast) = assay type: cell-based, human
Experimental: as §1, with “EP-302 was” for “The peptide conjugates were”, “6 h or 24” for “4”, “value derived for EP-302 in each cell line.” for “value.”

MiaPaCa (Pancreas) = assay type: cell-based, human
Experimental: as §1, with “EP-302 was” for “The peptide conjugates were”, “6 h or 24” for “4”, “value derived for EP-302 in each cell line.” for “value.”

[4] = test system: HL60 (Acute Myeloid Leukemia); assay type: cell-based, human; details: 24 h
Experimental: as §1, with “EP-302 was” for “The peptide conjugates were”, “6 h or 24” for “4”, “value derived for EP-302 in each cell line.” for “value.”

MCF-7 (Breast) = assay type: cell-based
Experimental: as §1, with “EP-302 was” for “The peptide conjugates were”, “6 h or 24” for “4”, “value derived for EP-302 in each cell line.” for “value.”

Daudi (NHL) = assay type: cell-based
Experimental: as §1, with “EP-302 was” for “The peptide conjugates were”, “6 h or 24” for “4”, “value derived for EP-302 in each cell line.” for “value.”

LoVo (Colon) = assay type: cell-based; details: 6 h
Experimental: as §1, with “EP-302 was” for “The peptide conjugates were”, “6 h or 24” for “4”, “value derived for EP-302 in each cell line.” for “value.”

[5] = test system: MCF-10A (normal breast cells); assay type: cell-based; details: 24 h
Experimental: as §1, with “EP-302 was” for “The peptide conjugates were”, “6 h or 24” for “4”, “value derived for EP-302 in each cell line.” for “value.”

[6] = test system: K562 (Chronic Myeloid Leukemia); assay type: cell-based; details: 24 h
Experimental: as §1, with “EP-302 was” for “The peptide conjugates were”, “6 h or 24” for “4”, “value derived for EP-302 in each cell line.” for “value.”

A549 (Lung) = assay type: cell-based
Experimental: as §1, with “EP-302 was” for “The peptide conjugates were”, “6 h or 24” for “4”, “value derived for EP-302 in each cell line.” for “value.”

OVCAR-3 (Ovary) = assay type: cell-based; details: 6 h
Experimental: as §1, with “EP-302 was” for “The peptide conjugates were”, “6 h or 24” for “4”, “value derived for EP-302 in each cell line.” for “value.”

[7] = test system: NIH-3T3 (mouse fibroblast cells); assay type: cell-based; details: 24 h
Experimental: as §1, with “EP-302 was” for “The peptide conjugates were”, “6 h or 24” for “4”, “value derived for EP-302 in each cell line.” for “value.”

[8] = test system: MV4-11(Acute Myeloid Leukemia); assay type: cell-based; details: 24 h
Experimental: as §1, with “EP-302 was” for “The peptide conjugates were”, “6 h or 24” for “4”, “value derived for EP-302 in each cell line.” for “value.”

HT 116(Colon) = assay type: cell-based
Experimental: as §1, with “EP-302 was” for “The peptide conjugates were”, “6 h or 24” for “4”, “value derived for EP-302 in each cell line.” for “value.”

HT 29 (Colon) = assay type: cell-based; details: 6 h
Experimental: as §1, with “EP-302 was” for “The peptide conjugates were”, “6 h or 24” for “4”, “value derived for EP-302 in each cell line.” for “value.”

MDA-MB-231 (Breast) = assay type: cell-based
Experimental: as §1, with “EP-302 was” for “The peptide conjugates were”, “6 h or 24” for “4”, “value derived for EP-302 in each cell line.” for “value.”

CHO (Hamster Ovary) = assay type: cell-based
Experimental: as §1, with “EP-302 was” for “The peptide conjugates were”, “6 h or 24” for “4”, “value derived for EP-302 in each cell line.” for “value.”

SKOV-3 (Ovary) = assay type: cell-based
Experimental: as §1, with “EP-302 was” for “The peptide conjugates were”, “6 h or 24” for “4”, “value derived for EP-302 in each cell line.” for “value.”

DU145 (Prostate) = assay type: cell-based
Experimental: as §1, with “EP-302 was” for “The peptide conjugates were”, “6 h or 24” for “4”, “value derived for EP-302 in each cell line.” for “value.”

[9] = 5 and 10 mg/kg i.v., female nude mice

## CC(C)C[C@H](NC(=O)[C@H](CCCNC(=N)N)NC(=O)[C@H](C)NC(=O)[C@H](CO)NC(=O)[C@H](CCCNC(=N)N)NC(=O)[C@H](CCCNC(=N)N)NC(=O)[C@H](CCC(N)=O)NC(=O)[C@H](CC(C)C)NC(=O)[C@H](CCCNC(=N)N)NC(=O)[C@H](C)NC(=O)[C@H](CCCNC(=N)N)NC(=O)[C@H](CCCCN)NC(=O)[C@H](C)NC(=O)[C@H](Cc1ccccc1)NC(=O)[C@H](CCCCN)NC(=O)[C@H](CCCCN)NC(=O)[C@H](C)NC(=O)[C@H](Cc1ccccc1)NC(=O)[C@H](CCCCN)NC(=O)[C@H](C)NC(=O)[C@H](Cc1ccccc1)NC(=O)[C@H](CCCCN)NC(=O)[C@H](CCCCN)NC(=O)[C@H](C)NC(=O)[C@H](Cc1ccccc1)NC(=O)[C@H](CCCCN)NC(=O)[C@H](C)NC(=O)[C@H](Cc1ccccc1)NC(=O)[C@@H](N)CCCCN)C(=O)N[C@@H](CO)C(=O)N[C@@H](C)C(=O)N[C@@H](CCCCN)C(=O)O [EP-302] (H-KFAKFAKKFAKFAKKFAKRARLQRRSARLSAK-OH)
Human red blood cells
  HA50: Not hemolytic
[1]
  IC50: 0.9 ± 0.05 µM
[2]
  IC50: 2.3 µM
[3]; 5 mg/kg i.v.
  Survival [%] Day 1: 100 (5/5) %
  Survival [%] Day 2*: 100 (5/5) %
  Survival [%] Day 3: 100 (5/5) %
  Survival [%] Day 4: 100 (5/5) %
  Survival [%] Day 5: 100 (5/5) %
[3]; 10 mg/kg i.v.
  Survival [%] Day 1: 100 (5/5) %
  Survival [%] Day 2*: 100 (5/5) %
  Survival [%] Day 3: 100 (5/5) %
  Survival [%] Day 4: 100 (5/5) %
  Survival [%] Day 5: 100 (5/5) %
[3]; [9]
  Blood parameters for CBC and serum chemistry: normal
  Body weight: remained stable
  Signs of toxicity / tolerability: no signs of toxicity
PC-3 (Prostate); 6 h
  IC50: 3.3 ± 0.3 µM
PC-3 (Prostate); 24 h
  IC50: 3.2 ± 0.8 µM
MDA-MB-435S (Breast); 6 h
  IC50: 1.4 ± 0.09 µM
MDA-MB-435S (Breast); 24 h
  IC50: 1.7 ± 0.2 µM
MiaPaCa (Pancreas); 6 h
  IC50: 2.1 ± 0.2 µM
MiaPaCa (Pancreas); 24 h
  IC50: 1.9 ± 0.1 µM
[4]
  IC50: 0.5 µM
MCF-7 (Breast); 6 h
  IC50: 5.5 ± 0.4 µM
MCF-7 (Breast); 24 h
  IC50: 6.4 ± 0.9 µM
Daudi (NHL); 6 h
  IC50: 3.2 ± 0.4 µM
Daudi (NHL); 24 h
  IC50: 2.5 ± 0.05 µM
LoVo (Colon)
  IC50: 14.1 ± 0.5 µM
[5]
  IC50: 68 µM
[6]
  IC50: 2.8 µM
A549 (Lung); 6 h
  IC50: 4.3 ± 0.6 µM
A549 (Lung); 24 h
  IC50: 2.4 ± 0.08 µM
OVCAR-3 (Ovary)
  IC50: 5.2 ± 0.3 µM
[7]
  IC50: 53 µM
[8]
  IC50: 0.5 µM
HT 116(Colon); 6 h
  IC50: 6.7 ± 0.9 µM
HT 116(Colon); 24 h
  IC50: 4.8 ± 1.1 µM
HT 29 (Colon)
  IC50: 45.8 ± 0.4 µM
MDA-MB-231 (Breast); 6 h
  IC50: 4.6 ± 0.9 µM
MDA-MB-231 (Breast); 24 h
  IC50: 3.6 ± 0.4 µM
CHO (Hamster Ovary); 6 h
  IC50: 3.1 ± 0.9 µM
CHO (Hamster Ovary); 24 h
  IC50: 3.7 ± 0.2 µM
SKOV-3 (Ovary); 6 h
  IC50: 5.1 ± 0.2 µM
SKOV-3 (Ovary); 24 h
  IC50: 5.2 ± 0.9 µM
DU145 (Prostate); 6 h
  IC50: 3.1 ± 0.02 µM
DU145 (Prostate); 24 h
  IC50: 5.1 ± 0.1 µM

— patent US20110124564A1, “NUCLEOLIN-BINDING PEPTIDES, NUCLEOLIN- BINDING LYTIC PEPTIDES, FUSION CONSTRUCTS AND METHODS OF MAKING AND USING SAME” (ESPERANCE PHARMACEUTICALS, INC., published 2011)
